From patent US7691387B2, “Cinnamomi and poria composition, method to prepare same and uses thereof” (Jiangsu Kanion Pharmaceutical Co., Ltd, priority 2000, dated 2010)
Where two headings read alike, the source gives them in different places.

Columns and labels:
[1] = tested on: twisting responses of mice induced by acetic acid; test: Acetic acid twisting experiment; format: in vivo; settings: positive control, 0.2 g/kg
Method: Randomly divide the animals into 5 groups. […] After the drug has been administered on the third day, celio-inject 0.5% acetic acid to the mice in groups. Observe and record the times of twisting of mice within 30 minutes. [formula]

[2] = tested on: platelet aggregation of rats; test: Platelet aggregation experiments of rats; format: in vivo, Wister rats; settings: 0.1 g/kg once
Method: The drug concentration is 0.5 mg/ml. […] The drug concentration is 1 g/ml. […] The drug concentration is 1 g/ml. Experimental process: […] Half an hour after administering the drug on the fifth day, use ether to anaesthetize the rats. […] Administer a 0.1 g/kg aspirin once to the positive control group. Prepare platelet plasma according to the method explained previously. Do the aggregation experiments, and record the conditions of every group.

[3] = tested on: extra-corporeal platelet aggregation of rabbits; test: Extra-corporeal platelet aggregation of rabbit (ADP); format: cell-based; settings: 0.3 Mg/ml
ear swelling of mice = test: Croton oil ear swelling of mice; format: in vivo, Kunming mice; settings: 0.025 g/Kg, three days
Method: Preparation of drug: Put 12.5 g of extract of CCP in 100 ml of normal saline, and mix adequately. The drug concentration is […]. Put 25 g of extract of CCP in 100 ml of normal saline, and mix adequately. The drug concentration is 1 g/ml. Put 50 g of extract of CCP in 100 ml of normal saline, and mix adequately. The drug concentration is 2 g/ml. Put 12.5 g of the Bolus of Cinnamomi & Poria in 100 ml of normal saline, and mix adequately. The drug concentration is […]. Put 25 g of extract in 100 ml of normal saline, and mix adequately. The drug concentration is 1 g/ml. Put 50 g of extract in 100 ml of normal saline, and mix adequately. The drug concentration is 2g/ml. Put 0.1 g of Hydrocortisone in 100 ml of normal saline. The drug concentration is 1 mg/ml. Administer all three preparations (a total of seven different solutions) with 10 ml/kg.
Experimental method: According to their weight, randomly divide fifty male mice into eight groups. Administer different doses of the seven solutions mentioned above for three days and for the control group administer the normal saline of the same volume. After three days of administering the drug, besmear […] croton oil on both sides of every mouse's left ear (compare with right ear). […]

[4] = cited from earlier work
streptococcus faecalis = settings: cited from earlier work
golden staphylococcus = settings: cited from earlier work
tinea germ between toes = settings: cited from earlier work
[5] = tested on: rheumatism, stomachache, other pains, eczema, dermatitis; settings: cited from earlier work
bacillus subtilis = settings: cited from earlier work
coliform = settings: cited from earlier work
[6] = tested on: blood pressure of anaesthetized dog; settings: mainline 80-120 mg/kg; cited from earlier work
[7] = tested on: rats' Whole Blood Ratio Viscosity; test: Whole Blood Ratio Viscosity of rats; format: in vivo, Wister rats; settings: 0.2 g/kg, 5 days
Method: Drug dispensation: put a 12.5 g extract of CCP in a 100 ml solution of normal saline and mix adequately. The drug concentration is 0.125 g/ml (containing 0.5 g/ml of crude drugs). Put a 25 extract of CCP in 100 ml of normal saline. The drug concentration is 0.25 g/ml (containing […] of crude drugs). Put a 50 extract of CCP in a 100 ml of normal saline and mix adequately. The drug concentration is 0.5 g/ml (containing 2 g/ml crude drugs).
Persantine: put 2 in normal saline and mix adequately. The drug concentration will be 20 mg/ml.
Experimental processing: Randomly divide male Wister rats weighing 250 to 300 g into five groups with eight rats in each group. Low, medium and high dose groups can take the extract of CCP in a concentration of 10 ml/kg. The concentration of crude drugs is 5 g/kg, 10.0 g/kg and 20 g/kg respectively. The control group takes normal saline of the same volume; positive medicine group takes 0.2 g/kg, which is 10 ml/kg of persantine. The drug must be administered once a day for five consecutive days. After an hour and a half of administering the drug on the fifth day, lightly anaesthetize the […] with ether. Record 40 test tubes, and put 0.1 ml heparin in each. Take blood from the abdominal aorta of the […] and fill each tube with 1 ml of blood. Then use XN-5 Type Blood Viscometer to determine the Whole Blood Ratio Viscosity.

In the case of `CC(=O)Oc1ccccc1C(=O)O` [Aspirin, Acetylsalicylic acid], the “controlling rate of twisting times” value [1] was 61.08%, the Aggregation ratio [2] was 26.58 ± 10.58 and the “Aggregation(%)” value [3] was 32.94 ± 1.68 %.
For `C[C@]12CCC(=O)C=C1CC[C@@H]1[C@@H]2[C@@H](O)C[C@@]2(C)[C@H]1CC[C@]2(O)C(=O)CO` [Hydrocortisone], the Average swelling degree (ear swelling of mice) was 4.68 ± 3.43.
For `COc1ccc(C(C)=O)c(O)c1` [Paeonol, Ethanone, 1-(2-hydroxy-4-methoxyphenyl)-], the solubility in water [4] is listed as “resolve a little in water”, the controlling consistency (streptococcus faecalis) is listed as 500 µg/mL and the controlling consistency (golden staphylococcus) is listed as 500 µg/mL. The controlling consistency (tinea germ between toes) was 250 µg/mL, the validity rate ([5]; 261 cases with rheumatoid arthritis, lumbago, bellyache, postoperative & cancer pain) was 92% and the validity rate ([5]; inject 50˜100 mg, rheumatism, other pains, eczema, dermatitis) was 83%. The controlling consistency (bacillus subtilis) was 200 µg/mL, the controlling consistency (coliform) was 200 µg/mL and the “duration of reduced pressure” value [6] was 10 to 12 min. The reduce pressure [6] was 41-61%.
With `OCCN(CCO)c1nc(N2CCCCC2)c2nc(N(CCO)CCO)nc(N3CCCCC3)c2n1` [Persantine] the “Whole Blood Ratio Viscosity, high shear” value [7] was 12.10 ± 1.90 and the “Whole Blood Ratio Viscosity, low shear” value [7] was 16.12 ± 6.92.
